We go through 22 molecules from US7202239B2, “Cyclohexylphenyl carboxamides tocolytic oxytocin receptor antagonists” (Wyeth, priority 2001, dated 2007).

The structures appear in SMILES notation.

For this experiment, the target named is human vasopressin V1a receptor subtype (Homo sapiens, UniProt P37288). The experiment in a line: Vasopressin binding in CHO cell membranes expressing human vasopressin V1a subtype receptors. The conditions noted are these: [3H]Manning ligand; for inhibition at 0.1 µM / V1a % inhibition at 100 nM: 100 nM; for IC50: value in parentheses. The source says: Vasopressin Binding in Chinese Hamster Ovary Cell Membranes Expressing Human Vasopressin V1a Subtype Receptors
human vasopressin V1a receptor subtype, sequence (P37288 whole entry): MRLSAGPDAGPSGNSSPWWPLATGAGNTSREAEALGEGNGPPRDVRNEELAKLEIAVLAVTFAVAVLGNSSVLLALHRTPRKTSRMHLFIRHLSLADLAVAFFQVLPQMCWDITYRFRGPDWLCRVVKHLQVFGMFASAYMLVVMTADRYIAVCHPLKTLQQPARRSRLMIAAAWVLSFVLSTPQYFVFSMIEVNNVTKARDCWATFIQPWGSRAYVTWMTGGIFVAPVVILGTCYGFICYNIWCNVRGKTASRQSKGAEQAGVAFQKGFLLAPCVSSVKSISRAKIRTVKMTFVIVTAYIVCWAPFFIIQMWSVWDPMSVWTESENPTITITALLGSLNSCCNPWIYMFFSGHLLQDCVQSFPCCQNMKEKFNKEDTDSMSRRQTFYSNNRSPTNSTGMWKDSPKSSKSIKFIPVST
Chinese hamster ovary cells (CHO cells) stably transfected with the human vasopressin V1a subtype receptors were either obtained from Biosignal Inc., 1744 rue Williams, Montreal, Quebec, Canada or obtained from M. Thibonnier, Case Western Reserve University School of Medicine, Cleveland, Ohio. A. Passaging and Amplification of Cells: CHO cells transfected with the human vasopressin V1a subtype receptors obtained from M. Thibonnier (pZeoSV vector) are allowed to grow to confluency (approx. >90%) in T-150 flasks under sterile conditions, in a cell culture medium of F-12 Nutrient Mixture (HAM) with L-glutamine (Gibco Cat. # 11765-054) containing 15 mM HEPES (Gibco Cat. 15630-080), 1% antibiotic/antimycotic (add 5 mL 100×, Gibco Cat. 15240-062 per 500 mL F-12), 250 μg/mL Zeocin (add 1.25 mL of 100 mg/mL Invitrogen R-250-01 per 500 mL F-12) and 10% Fetal Bovine Serum (Qualified, heat inactivated, Gibco Cat. # 16140-063). The medium is removed by aspiration and the cells are washed with 10 mL of Hank's Balanced Salt solution (Gibco Cat. # 14175-095). The salt solution is removed by aspiration and the cells are trypsinized with 5 mL of trypsin-EDTA (0.05% trypsin, 0.53 mM EDTA-4Na, Gibco Cat. # 25300-070) for 1 min. The trypsin is removed by aspiration and the cells dislodged by tapping. Cell Culture medium (eg, 30 mL for 1:30 split) is immediately added and mixed well to inactivate trypsin. 1 mL of detached cells is added to new culture flasks containing fresh cell culture medium (eg, into 25 mL per T-150 flask), and mixed gently. The cells are incubated at 37° C. in 5% CO2. The medium is changed at 3 to 4 days interval (or as appropriate). The cells grow to confluency (approx. >75%–95%) within 7–8 days. All steps are done under sterile conditions. B. Membrane Preparation: The cells are washed twice gently with Hank's Balanced Salt solution (e.g,. use 10 mL per T-150 flask). The excess is removed and the cells are bathed for 15–30 min. in an enzyme-free Cell Dissociation Buffer (e.g. use 8 mL Hank's Based, Gibco Cat. # 13150-016 per T-150 flask) until the cells are loosened. The contents are transferred to centrifuge tubes (50 mL) kept in an ice bath. All subsequent steps are done at 4° C. The tubes are centrifuged at 300×g for 15 min (1380 rpm on SORVAL, Model RT6000D, using rotor for the 50 mL tubes). The supernatant is discarded and the cells suspended in homogeneizing buffer(10 mM Tris-HCl containing 0.25 M sucrose and 1 mM EDTA, pH 7.4) ensuring that the volume of the buffer is about ten times the volume of the cell pellet. The cells are pooled into a centrifuge tube (50 mL) and homogenized with Polytron at setting 6 for 10 sec. The homogenate is transferred into a Potter-Elvjehm homogenizer and homogenized with 3 strokes. The homogenate is centrifuged at 1500× g for 10 min at 4° C. (3100 rpm using SORVAL, model RT6000D, using the rotor for 50 mL tubes). The pellet is discarded. The supernatant is centrifuged at 100,000×g for 60 min. at 4° C. (Beckman L8-80M ultracentrifuge; spin at 37,500 rpm with rotor type 70 Ti for 50 mL tubes; 38,000 rpm with type 80Ti for 15 mL tubes; or 35,800 rpm with rotor type 45Ti). The supernantant is discarded and the pellet suspended in 3 to 4 mL of Tris buffer (50 mM TRIS-HCl, pH 7.4). The protein content is estimated by the Bradford or Lowry method. The volume of the membrane suspension is adjusted with the membrane buffer (50 mM Tris-HCl containing 0.1% BSA and 0.1 mM PMSF) to give 3.0 mg/mL (or as appropriate) of protein. The membranes are aliquoted and stored at −70° C. C. […]

With `CN(Cc1cccnc1)C(=O)c1ccc2n1Cc1ccccc1N(C(=O)c1ccc(C3CCCCC3)cc1)C2` [Example 57, 10-(4-Cyclohexyl-benzoyl)-N-methyl-N-(3-pyridinylmethyl)-10,11-dihydro-5H-pyrrolo[2,1-c][1,4]benzodiazepine-3-carboxamide], the inhibition (usually the relative decrease from the control value, in per cent) at 0.1 µM is -5%.
For `COc1ccc(NC(=O)c2ccc3n2Cc2ccccc2N(C(=O)c2ccc(C4CCCCC4)cc2)C3)cc1` [Example 29, 10-(4-Cyclohexyl-benzoyl)-10,11-dihydro-5H-pyrrolo[2,1-c][1,4]benzodiazepine-3-carboxylic acid (4-methoxy-phenyl)-amide], the inhibition at 0.1 µM was 2%.
With `O=C(NCc1cccnc1)c1ccc2n1Cc1ccccc1N(C(=O)c1ccc(C3CCCCC3)cc1)C2` [Example 51, 10-(4-Cyclohexyl-benzoyl)-N-(3-pyridinylmethyl)-10,11-dihydro-5H-pyrrolo [2,1-c][1,4]benzodiazepine-3-carboxamide], the inhibition at 0.1 µM was -1%.
As for `O=C(O)c1ccc2n1Cc1ccccc1N(C(=O)c1ccc(C3CCCCC3)cc1)C2` [Example 22, 10-(4-Cyclohexyl-benzoyl)-10,11-dihydro-5H-pyrrolo[2,1 c][1,4]benzodiazepine-3-carboxylic acid], the “V1a % inhibition at 100 nM” value stood at 13%.
Turning to `CN(C)CCN1CCN(C(=O)c2ccc3n2Cc2ccccc2N(C(=O)c2ccc(C4CCCCC4)cc2)C3)CC1` [Example 41, [10-(4-Cyclohexyl-benzoyl)-10,11-dihydro-5H-pyrrolo[2,1-c][1,4]benzodiazepin-3-yl]{4-[2-(dimethylamino)ethyl]-1-piperazinyl}methanone], the inhibition at 0.1 µM amounted to 14%.
As to `Cc1ccccc1C(=O)NNC(=O)c1ccc2n1Cc1ccccc1N(C(=O)c1ccc(C3CCCCC3)cc1)C2` [Example 12, 10-(4-Cyclohexyl-benzoyl)-N′-(2-methylbenzoyl)-10,11-dihydro-5H-pyrrolo[2,1-c][1,4]benzodiazepine-3-carbonyl-hydrazide], the “V1a % inhibition at 100 nM” value is on record as 31%.
As for `O=C(NCCCn1ccnc1)c1ccc2n1Cc1ccccc1N(C(=O)c1ccc(C3CCCCC3)cc1)C2` [Example 36, 10-(4-Cyclohexyl-benzoyl)-N-[3-(1H-imidazol-1-yl)propyl]-10,11-dihydro-5H-pyrrolo[2,1-c][1,4]benzodiazepine-3-carboxamide], the inhibition at 0.1 µM was 3%.
Same read-out and setting: the same measure for `C=CCN1CCN(C(=O)c2ccc3n2Cc2ccccc2N(C(=O)c2ccc(C4CCCCC4)cc2)C3)CC1` [Example 43, (4-Allyl-1-piperazinyl)[10-(4-cyclohexyl-benzoyl)-10,11-dihydro-5H-pyrrolo[2,1-c][1,4]benzodiazepin-3-yl]methanone]: 1%.
`CC(=O)NNC(=O)c1ccc2n1Cc1ccccc1N(C(=O)c1ccc(C3CCCCC3)cc1)C2` [Example 11, N′-Acetyl-10-(4-cyclohexyl-benzoyl)-10,11-dihydro-5H-pyrrolo[2,1-c][1,4]benzodiazepine-3-carbonyl-hydrazide]: the IC50 (in general, the point on the concentration scale where inhibition reaches its midpoint) worked out at 367 nM.
On to `CN(N)C(=O)c1ccc2n1Cc1ccccc1N(C(=O)c1ccc(C3CCCCC3)cc1)C2` [Example 21, 10-(4-Cyclohexyl-benzoyl)-N-methyl-10,11-dihydro-5H-pyrrolo[2,1-c][1,4]benzodiazepine-3-carboxylic acid hydrazide], for which the inhibition at 0.1 µM came out at 21%.
Same read-out and setting: the same measure for `O=C(c1ccc(C2CCCCC2)cc1)N1Cc2ccc(C(=O)n3ccnc3)n2Cc2ccccc21` [Example 56, 1H-Imidazol-1-yl-[10-(4-cyclohexyl-benzoyl)-10,11-dihydro-5H-pyrrolo[2,1-c][1,4]benzodiazepin-3-yl]-methanone]: 16%.
Take `O=C(NNC(=O)C1CC1)c1ccc2n1Cc1ccccc1N(C(=O)c1ccc(C3CCCCC3)cc1)C2` [Example 13, 10-(4-Cyclohexyl-benzoyl)-N′-(cyclopropylcarbonyl)-10,11-dihydro-5H-pyrrolo[2,1-c][1,4]benzodiazepine-3-carbonyl-hydrazide]: the “V1a % inhibition at 100 nM” value came to 35%.
Turning to `CN(CCc1ccncc1)C(=O)c1ccc2n1Cc1ccccc1N(C(=O)c1ccc(C3CCCCC3)cc1)C2` [Example 55, 10-(4-Cyclohexyl-benzoyl)-N-methyl-N-[2(4-pyridinyl)ethyl]-10,11-dihydro-5H-pyrrolo[2,1-c][1,4]benzodiazepine-3-carboxamide], the inhibition at 0.1 µM was 50%.
With `O=C(C(=O)N1CCC(N2CCCCC2)CC1)c1ccc2n1Cc1ccccc1N(C(=O)c1ccc(C3CCCCC3)cc1)C2` [Example 31, 1-[1.4′]Bipiperidinyl-1′-yl-2-[10-(4-cyclohexyl-benzoyl)-10,11-dihydro-5H-pyrrolo[2,1-c][1,4]benzodiazepin-3-yl]-ethane-1,2-dione], the “V1a % inhibition at 100 nM” value stood at 69%.
`O=C(NCc1ccccn1)c1ccc2n1Cc1ccccc1N(C(=O)c1ccc(C3CCCCC3)cc1)C2` [Example 50, 10-(4-Cyclohexyl-benzoyl)-N-(2-pyridinylmethyl)-10,11-dihydro-5H-pyrrolo[2,1-c][1,4]benzodiazepine-3-carboxamide]: the inhibition at 0.1 µM turned out to be 3%.
Regarding `O=C(NCc1ccncc1)c1ccc2n1Cc1ccccc1N(C(=O)c1ccc(C3CCCCC3)cc1)C2` [Example 53, 10-(4-Cyclohexyl-benzoyl)-N-(4-pyridinylmethyl)-10,11-dihydro-5H-pyrrolo[2,1-c][1,4]benzodiazepine-3-carboxamide], the inhibition at 0.1 µM was 20%.
`CN1CCC(N(C)C(=O)c2ccc3n2Cc2ccccc2N(C(=O)c2ccc(C4CCCCC4)cc2)C3)C1` (stereo not shown) [Example 40, 10-(4-Cyclohexyl-benzoyl)-N-methyl-N-(1-methyl-3-pyrrolidinyl)-10,11-dihydro-5H-pyrrolo[2,1-c][1,4]benzodiazepine-3-carboxamide]: the inhibition at 0.1 µM is 22%.
On the same count and under the same terms, the same measure for `O=C(NCCN1CCCCC1)c1ccc2n1Cc1ccccc1N(C(=O)c1ccc(C3CCCCC3)cc1)C2` [Example 37, 10-(4-Cyclohexyl-benzoyl)-N-[2-(1-piperidinyl)ethyl]-10,11-dihydro-5H-pyrrolo[2,1-c][1,4]benzodiazepine-3-carboxamide]: 23%; for `O=C(NCCc1ccccn1)c1ccc2n1Cc1ccccc1N(C(=O)c1ccc(C3CCCCC3)cc1)C2` [Example 49, 10-(4-Cyclohexyl-benzoyl)-N-[2-(2-pyridinyl)ethyl]-10,11-dihydro-5H-pyrrolo[2,1-c][1,4]benzodiazepine-3-carboxamide]: 0%.
Take `CC(=O)c1ccc2n1Cc1ccccc1N(C(=O)c1ccc(C3CCCCC3)cc1)C2` [Example 6, 1-[10-(4-Cyclohexyl-benzoyl)-10,11-dihydro-5H-pyrrolo[2,1-c][1,4]benzodiazepin-3-yl]-ethanone]: the IC50 is 258 nM.
Still for that read-out and setting: next, `O=C(c1ccc2n1Cc1ccccc1N(C(=O)c1ccc(C3CCCCC3)cc1)C2)N1CCN(c2ccccn2)CC1` [Example 28, [10-(4-Cyclohexyl-benzoyl)-10,11-dihydro-5H-pyrrolo[2,1-c][1,4]benzodiazepine 3-yl][4-(2-pyridinyl)-1-piperazinyl]-methanone]: over 1000 nM.
Take `O=C(c1ccc2n1Cc1ccccc1N(C(=O)c1ccc(C3CCCCC3)cc1)C2)N1CCN(CCO)CC1` [Example 48, [10-(4-Cyclohexyl-benzoyl)-10,11-dihydro-5H-pyrrolo[2,1-c][1,4]benzodiazepin-3-y][4-(2-hydroxyethyl)-1-piperazinyl]methanone]: the “V1a % inhibition at 100 nM” value was found to be 35%.
